Results published in patent US20190017026A1, “METHOD AND DEVICE FOR CONSERVING VIABLE AND FUNCTIONAL HUMAN POLYMORPHONUCLEAR NEUTROPHILS” (INSTITUT PASTEUR, priority 2014, published 2019).
“Also recorded” adds a separate entry of the source. Counter-ions that a name gives are not always drawn.

Columns and labels:
human neutrophils = assay: Neutrophil survival rate by flow cytometry (Annexin V-/PI-) upon storage; assay type: cell-based; settings: for neutrophil survival rate (Annexin V-/PI-): 3 mM glucose, 32 μg/mL DMOG
Procedure: Neutrophils fractions with a >95% purity obtained by applying Method 1 or Method 2 were resuspended at a 5×10^6 cells/mL concentration in RPMI 1640 with L Glutamine and 25 mM Hepes (Gibco, Life Technologies), 10% of heat inactivated Foetal Bovine Serum (FBS) (Invitrogen, Gibco) and indicated concentrations of glucose (Sigma-Aldrich) and Dimethyloxalylglycine or DMOG (Cayman Chemical Company). For comparative experiments aiming at characterizing the role of oxygen on neutrophils survival, purified neutrophils (Method 1 or Method 2) were split in two identical fractions. One was stored at 37° C. with 5% CO2 under atmospheric conditions (20% O2 condition, +O2). The second one was stored at 37° C. in an anoxic chamber ([…], Don […]) under an atmosphere containing 90% N2, 5% CO2 and 5% H2 (0% O2 condition, -O2), during indicated time. Cell viability. For neutrophil survival analysis, human neutrophils (1×10^6) were washed twice in PBS and then resuspended in 1 ml of Annexin V binding Buffer. A 100 μl sample (1×10^5 cells) was stained with 5 μl of APC-Annexin V and 5 μl of Propidium iodide (PI) (0.5 μg/ml final concentration) as recommended by the manufacturer. At least 10^4 events were acquired for each condition on a FACSCaliburTM flow cytometer (BD Biosciences), and data were analyzed using CellQuestTM Pro Software (BD Biosciences). Viable cells were defined as Annexin V-/PI- quantifications. In this study, neutrophil survival rate was evaluated in various conditions by flow cytometry, by quantifying the proportion of viable (propidium iodide negative staining, PI-) and non-apoptotic (Annexin V negative staining, Annexin V-) cells.

neutrophils = settings: normoxic conditions; cited from earlier work

## O=C(O)CC(O)(CC(=O)O)C(=O)O [citrate, sodium citrate]
Human neutrophils; blood collected with citrate, presence or absence of oxygen, 20 h and 48 h post purification
  neutrophils survival rate as compared to heparin as anticoagulant: significant increase of neutrophils survival rate; also recorded: improved

## COC(=O)CNC(=O)C(=O)OC [DMOG, Dimethyloxalylglycine]
neutrophils
  effect on neutrophil apoptosis: decreases apoptosis
Human neutrophils; citrate (Method 2), anoxia, 20 h
  neutrophil survival rate (Annexin V-/PI-): 70±8%
Human neutrophils; citrate (Method 2), anoxia, 48 h
  neutrophil survival rate (Annexin V-/PI-): 49±2%
Human neutrophils; heparin (Method 1), absence of oxygen, 20 h storage
  neutrophil survival rate (Annexin V-/PI-): 54+10%
Human neutrophils; heparin (Method 1), absence of oxygen, 48 h storage
  neutrophil survival rate (Annexin V-/PI-): 14+10%

## O=C(O)CN(CCN(CC(=O)O)CC(=O)O)CC(=O)O [EDTA]
Human neutrophils; blood collected with EDTA instead of citrate
  neutrophils survival as compared to citrate at blood collection: even better results
